Numbering of substitutions follows the chain as printed.
Assays:
[1] = tested on: CEM-C7A cells; experiment: Apoptosis assay in CEM-C7A cells (viable cell count, MTS); format: cell-based, human
Procedure: The CEM-C7A cell line is a steroid sensitive clone of the CCRF-CEM cell line (ECACC 85112105). This is a T lymphoblastoid cell line with functional endogenous GR.
Apoptosis (programmed cell death) is mediated by a protein called Bax the transcription of which is primarily controlled by the GR in a ligand dependant manner. To measure the ability of a GR ligand to effect apoptosis a suitable cell line was incubated with ligand and a viable cell count was performed after three days.
CEM-C7A cells were plated out on to a 96well plate at 5×10^5/well. The steroids of FIGS. 1 and 2A were added immediately to generate a final concentration of 100 nM. After a three day incubation the live cell number in each well was assessed using Celltiter 96 Aqueous Non-Radioactive Cell Proliferation Assay (Promega). This assay is a calorimetric method for determining the number of viable cells in proliferation or chemosensitivity assays.
Briefly, the assay is composed of solutions of a novel tetrazolium compound (3-(4,5-dimethylthiazol-2-yl)-5-(3-carboxymethoxyphenyl)-2-(4-sulfophenyl)-2H-tetrazolium, MTS) and an electron coupling reagent (phenazine methosulfate; PMS). MTS is bioreduced by cells into a formazan product that is soluble in tissue culture medium. The absorbance of the formazan at 490 nm can be measured directly from 96 well assay plates without additional processing. The conversion of MTS into aqueous, soluble formazan is accomplished by dehydrogenase enzymes found in metabolically active cells. The quantity of formazan product as measured by the amount of 490 nm absorbance is directly proportional to the number of living cells in culture.

[2] = target: T1, progesterone receptor (PRB) (Homo sapiens, UniProt P06401); experiment: Progestogen activity assay using progesterone receptor transactivation; format: cell-based; conditions: unpublished data, conditions not given
T1 construct: expressed in transfected cells; host or cells: COS 7
T1 sequence (P06401 1-933): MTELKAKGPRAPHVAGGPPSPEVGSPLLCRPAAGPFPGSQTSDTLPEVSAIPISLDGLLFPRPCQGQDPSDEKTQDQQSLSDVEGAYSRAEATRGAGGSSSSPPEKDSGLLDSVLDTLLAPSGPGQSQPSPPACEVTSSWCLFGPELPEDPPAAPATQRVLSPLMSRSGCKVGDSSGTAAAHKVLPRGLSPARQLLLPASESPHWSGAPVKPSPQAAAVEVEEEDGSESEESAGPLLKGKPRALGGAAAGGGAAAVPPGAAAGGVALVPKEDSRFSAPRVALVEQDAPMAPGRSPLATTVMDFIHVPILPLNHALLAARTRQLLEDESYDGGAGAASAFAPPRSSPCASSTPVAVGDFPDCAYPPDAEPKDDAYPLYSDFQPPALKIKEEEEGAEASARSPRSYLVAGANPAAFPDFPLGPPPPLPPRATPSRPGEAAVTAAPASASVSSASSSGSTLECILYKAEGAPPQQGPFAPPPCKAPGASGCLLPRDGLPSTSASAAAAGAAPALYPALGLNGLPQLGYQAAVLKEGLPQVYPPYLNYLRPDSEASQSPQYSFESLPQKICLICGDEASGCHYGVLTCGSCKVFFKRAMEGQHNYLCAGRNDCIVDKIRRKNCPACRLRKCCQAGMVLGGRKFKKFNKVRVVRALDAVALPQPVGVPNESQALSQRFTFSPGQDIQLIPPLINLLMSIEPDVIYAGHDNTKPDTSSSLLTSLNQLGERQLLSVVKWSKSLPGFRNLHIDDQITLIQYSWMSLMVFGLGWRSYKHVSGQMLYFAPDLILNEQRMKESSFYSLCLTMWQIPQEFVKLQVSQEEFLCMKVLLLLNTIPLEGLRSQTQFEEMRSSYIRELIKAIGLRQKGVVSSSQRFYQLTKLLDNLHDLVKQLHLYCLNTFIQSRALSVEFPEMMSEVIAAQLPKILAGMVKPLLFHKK

[3] = target: T2, glucocorticoid receptor (Homo sapiens, UniProt P04150); design: expressed in transfected cells; host or cells: COS 7 (African green monkey kidney, deficient in endogenous GR); conditions: in-vitro, other investigators; cited from earlier work
T2 sequence (P04150 1-777): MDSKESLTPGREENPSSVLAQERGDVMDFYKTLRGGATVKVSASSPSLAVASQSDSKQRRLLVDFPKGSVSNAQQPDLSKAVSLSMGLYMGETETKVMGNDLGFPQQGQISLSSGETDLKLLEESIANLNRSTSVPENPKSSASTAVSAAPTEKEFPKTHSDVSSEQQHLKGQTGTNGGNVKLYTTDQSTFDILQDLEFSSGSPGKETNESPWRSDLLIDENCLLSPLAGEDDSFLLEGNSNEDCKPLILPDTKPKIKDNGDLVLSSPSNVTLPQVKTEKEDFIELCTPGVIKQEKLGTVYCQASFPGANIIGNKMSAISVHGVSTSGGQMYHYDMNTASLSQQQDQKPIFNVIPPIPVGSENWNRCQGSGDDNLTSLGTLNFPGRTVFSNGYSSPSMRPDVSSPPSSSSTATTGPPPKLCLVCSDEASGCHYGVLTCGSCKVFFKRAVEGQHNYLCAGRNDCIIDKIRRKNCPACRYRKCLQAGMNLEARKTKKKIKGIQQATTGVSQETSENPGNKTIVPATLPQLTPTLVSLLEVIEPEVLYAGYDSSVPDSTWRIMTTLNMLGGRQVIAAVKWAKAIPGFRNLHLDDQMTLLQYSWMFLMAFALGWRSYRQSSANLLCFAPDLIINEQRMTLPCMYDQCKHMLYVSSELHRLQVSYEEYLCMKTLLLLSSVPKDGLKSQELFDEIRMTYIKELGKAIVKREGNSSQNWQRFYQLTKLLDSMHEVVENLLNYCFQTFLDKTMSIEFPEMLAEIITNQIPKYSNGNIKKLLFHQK

[4] = cited from earlier work
[5] = target: T3, GR Tyr735ser (Homo sapiens, UniProt P04150, Y735S); experiment: Transactivation of the MMTV promoter by mutant GR Tyr735ser; format: cell-based; conditions: 100 nM
T3 construct: expressed in transfected cells
T3 sequence (P04150 1-777 Y735S): T2 sequence (P04150 1-777) with Y735S

[6] = target: T4, wild-type GR (Homo sapiens, UniProt P04150); experiment: Transactivation of the MMTV promoter by wild-type GR; format: cell-based; conditions: 100 nM
T4 construct: expressed in transfected cells
T4 sequence (P04150 1-777): T2 sequence (P04150 1-777)

[7] = target: T5, GR Tyr735phe (Homo sapiens, UniProt P04150, Y735F); experiment: Transactivation of the MMTV promoter by mutant GR Tyr735phe; format: cell-based; conditions: 100 nM
T5 construct: expressed in transfected cells
T5 sequence (P04150 1-777 Y735F): T2 sequence (P04150 1-777) with Y735F

[8] = target: T6, GR Tyr735val (Homo sapiens, UniProt P04150, Y735V); experiment: Transactivation of the MMTV promoter by mutant GR Tyr735val; format: cell-based; conditions: 100 nM
T6 construct: expressed in transfected cells
T6 sequence (P04150 1-777 Y735V): T2 sequence (P04150 1-777) with Y735V

In the case of `C[C@@H]1C[C@H]2[C@@H]3CCC4=CC(=O)C=C[C@]4(C)[C@@]3(F)[C@@H](O)C[C@]2(C)[C@H]1C(=O)CC#N` [RU24858, reference compound], the effect on proliferation ([1]; CEM C7A cells) is reported as “impaired proliferation”, the induction of apoptosis ([1]; CEM C7A cells, 100 nM, three day incubation) is reported as “did not induce significant apoptosis” and the induction of apoptosis ([1]; unpublished data, conditions not given) is reported as “does not induce apoptosis”. For the same compound, the “activation of the progesterone receptor” value [2] was “activating the progesterone receptor”, the “selectivity for transrepression over transactivation” value [3] was 2 fold and the desired profile in-vivo [4] was “failed to show the desired profile in-vivo”.
With `C[C@]12CCC(=O)C=C1CC[C@@H]1[C@@H]2[C@@H](O)C[C@@]2(C)[C@H]1CC[C@]2(O)C(=O)CO` [hydrocortisone] the “induction of MMTV” value [5] was “failed to induce the reporter”, the “induction of MMTV” value [6] was 18 fold and the “induction of MMTV” value [7] was 11 fold. The “induction of MMTV” value [8] was 10.6 fold.

Source: patent US7763596B2, “Selective glucocorticoid receptor agonists” (The University of Manchester, priority 2000, dated 2010)
